Assay: Form stability experiment of crystalline forms (XRD crystalline form test after storage)
Assay type: physicochemical
Conditions: for Test result after 30 day (XRD crystalline form): 20 mg placed at 60° C. or at room temperature under dry conditions for 30 days; for form stability on storage (form kept or changed, appearance): one month in a dry environment at room temperature and at 60° C.
Method: X-ray powder diffraction (XRPD): performed on a Bruker D8 Advance diffractometer. Samples are tested at room temperature. Testing conditions: 2θ scan range 3 to 40°, step size 0.02° and speed 0.2 s/step.
Form stability experiment of crystalline forms: Placed 20 mg abemaciclib mesylate in Preparation Example 1, abemaciclib mesylate Form 1, Form 2, Form 5, Form 6, and Form 8 of the present invention at 60° C. or at room temperature under dry conditions for 30 days, then carried out XRD crystalline form test.

| Compound | Test result after 30 day (XRD crystalline form) (methanesulfonate) | form stability on storage (form kept or changed, appearance) (methanesulfonate) | other results |
| --- | --- | --- | --- |
| CCN1CCN(Cc2ccc(Nc3ncc(F)c(-c4cc(F)c5nc(C)n(C(C)C)c5c4)n3)nc2)CC1.CS(=O)(=O)O [Abemaciclib mesylate Form 1, N-(5-((4-ethylpiperazin-1-yl)methyl)pyridin-2-yl)-5-fluoro-4-(4-fluoro-1-isopropyl-2-methyl-1H-benzo[d]imidazol-6-yl)pyrimidin-2-amine methanesulfonate] | Form 1 | kept its form unchanged | Test result after 30 day (XRD crystalline form) (listed as Form 1, methanesulfonate): still kept their original crystalline forms |
| CCN1CCN(Cc2ccc(Nc3ncc(F)c(-c4cc(F)c5nc(C)n(C(C)C)c5c4)n3)nc2)CC1.CS(=O)(=O)O [Abemaciclib mesylate Form 2, N-(5-((4-ethylpiperazin-1-yl)methyl)pyridin-2-yl)-5-fluoro-4-(4-fluoro-1-isopropyl-2-methyl-1H-benzo[d]imidazol-6-yl)pyrimidin-2-amine methanesulfonate] | Form 2 | kept its form unchanged | Test result after 30 day (XRD crystalline form) (listed as Form 2, methanesulfonate): still kept their original crystalline forms |
| CCN1CCN(Cc2ccc(Nc3ncc(F)c(-c4cc(F)c5nc(C)n(C(C)C)c5c4)n3)nc2)CC1.CS(=O)(=O)O [Abemaciclib mesylate Form 5, N-(5-((4-ethylpiperazin-1-yl)methyl)pyridin-2-yl)-5-fluoro-4-(4-fluoro-1-isopropyl-2-methyl-1H-benzo[d]imidazol-6-yl)pyrimidin-2-amine methanesulfonate] | Form 5 | kept its form unchanged | Test result after 30 day (XRD crystalline form) (listed as Form 5, methanesulfonate): still kept their original crystalline forms |

Further lines, with some results ahead:

| Test result after 30 day (XRD crystalline form) (methanesulfonate) | form stability on storage (form kept or changed, appearance) (methanesulfonate) | Compound | other results |
| --- | --- | --- | --- |
| Form 6 | kept its form unchanged | CCN1CCN(Cc2ccc(Nc3ncc(F)c(-c4cc(F)c5nc(C)n(C(C)C)c5c4)n3)nc2)CC1.CS(=O)(=O)O [Abemaciclib mesylate Form 6, N-(5-((4-ethylpiperazin-1-yl)methyl)pyridin-2-yl)-5-fluoro-4-(4-fluoro-1-isopropyl-2-methyl-1H-benzo[d]imidazol-6-yl)pyrimidin-2-amine methanesulfonate] | Test result after 30 day (XRD crystalline form) (listed as Form 6, methanesulfonate): still kept their original crystalline forms |
| Form 8 | kept its form unchanged | CCN1CCN(Cc2ccc(Nc3ncc(F)c(-c4cc(F)c5nc(C)n(C(C)C)c5c4)n3)nc2)CC1.CS(=O)(=O)O [Abemaciclib mesylate Form 8, N-(5-((4-ethylpiperazin-1-yl)methyl)pyridin-2-yl)-5-fluoro-4-(4-fluoro-1-isopropyl-2-methyl-1H-benzo[d]imidazol-6-yl)pyrimidin-2-amine methanesulfonate] | Test result after 30 day (XRD crystalline form) (listed as Form 8, methanesulfonate): still kept their original crystalline forms |
| Amorphous |  | CCN1CCN(Cc2ccc(Nc3ncc(F)c(-c4cc(F)c5nc(C)n(C(C)C)c5c4)n3)nc2)CC1.CS(=O)(=O)O [Abemaciclib mesylate, N-(5-((4-ethylpiperazin-1-yl)methyl)pyridin-2-yl)-5-fluoro-4-(4-fluoro-1-isopropyl-2-methyl-1H-benzo[d]imidazol-6-yl)pyrimidin-2-amine methanesulfonate] | form stability on storage (form kept or changed, appearance) (listed as amorphos abemaciclib mesylate, methanesulfonate): weak crystalline state and discoloration appeared; form stability on storage (form kept or changed, appearance) (listed as amorphous abemaciclib mesylate, methanesulfonate): weak crystalline state and discoloration appeared |
